In patent US20050043378A1, “LTA4H modulators” (priority 2003, published 2005):
Where a name gives a salt, the structure may show the parent alone.

Assays:
[1] = system: LTB4 production by calcium ionophore-stimulated murine blood; test: LTB4 production by calcium ionophore-stimulated murine blood for LTA4H inhibitor activity; type: cell-based, CD-1 mice; settings: diluted CD-1 mouse whole blood, A23187 stimulation, LTB4 by immunoassay; read-out: IC50
[2] = molecular target: T1, recombinant human LTA4 hydrolase (rhLTA4H) (Homo sapiens, UniProt P09960); test: Recombinant human LTA4 hydrolase assay for LTA4 hydrolase inhibitor activity; type: biochemical; settings: LTA4 substrate, LTB4 by immunoassay, average of one to three determinations;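 further: enzyme expressed in Sf-9 insect cells, compound preincubated 10 min with enzyme, 10 min reaction at room temperature, uninhibited reaction as positive control, enzyme-free blank as negative control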
T1 construct: made in house; host or cells: Spodoptera frugiperda (Sf-9) cells, baculovirus (pFastBac1)
T1 sequence (P09960 1-611): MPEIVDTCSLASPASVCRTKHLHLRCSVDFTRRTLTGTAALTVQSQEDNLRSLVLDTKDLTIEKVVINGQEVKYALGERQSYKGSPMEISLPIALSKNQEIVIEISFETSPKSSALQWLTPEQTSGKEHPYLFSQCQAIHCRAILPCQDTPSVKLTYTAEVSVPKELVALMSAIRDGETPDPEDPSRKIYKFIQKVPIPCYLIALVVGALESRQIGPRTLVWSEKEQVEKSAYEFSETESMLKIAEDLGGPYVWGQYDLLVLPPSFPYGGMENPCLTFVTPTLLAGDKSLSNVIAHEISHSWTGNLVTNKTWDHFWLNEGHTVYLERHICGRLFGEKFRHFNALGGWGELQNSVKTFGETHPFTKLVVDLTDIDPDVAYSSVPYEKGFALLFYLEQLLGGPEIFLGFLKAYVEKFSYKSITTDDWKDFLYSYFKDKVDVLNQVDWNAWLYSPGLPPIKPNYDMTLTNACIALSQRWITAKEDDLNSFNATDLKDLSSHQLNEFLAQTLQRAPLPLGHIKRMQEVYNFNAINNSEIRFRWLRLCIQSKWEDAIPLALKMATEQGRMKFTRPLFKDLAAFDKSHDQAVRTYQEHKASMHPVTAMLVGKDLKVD

[3] = system: neutrophil influx (myeloperoxidase, MPO); test: Murine arachidonic acid-induced inflammation model: neutrophil influx (myeloperoxidase activity in ear biopsies); type: in vivo, female Balb/c mice; settings: Mus musculus, 30 mg/kg oral gavage 60 min before topical arachidonic acid to ear, ear biopsies after 3 h, vs animals without inhibitor, read-out: % Inh. MPO

IC50 [1]	IC50 [2]	SMILES	inhibition in vivo at 30 mg/kg [3]
144 nM	27 nM	CCOC(=O)NC1CCN(Cc2ccc(Oc3nc4ccccc4s3)cc2)CC1 [Example 462, {1-[4-(Benzothiazol-2-yloxy)-benzyl]-piperidin-4-yl}-carbamic acid ethyl ester]	–
81 nM	16 nM	O=C1C[C@H](O)CN1C1CCN(CCOc2ccc(Oc3nc4ccccc4s3)cc2)CC1 [Example 207, (S)-1-(1-{2-[4-(Benzothiazol-2-yloxy)-phenoxy]-ethyl}-piperidin-4-yl)-4-hydroxy-pyrrolidin-2-one]	–
133 nM	33 nM	OCCC1CCN(Cc2ccc(Oc3nc4ccccc4s3)cc2)CC1 [Example 296, 2-{1-[4-(Benzothiazol-2-yloxy)-benzyl]-piperidin-4-yl}-ethanol]	–
453 nM	100 nM	O=C1C[C@@H](O)CN1C1CCN(CCc2ccc(Oc3nc4ccccc4s3)cc2)CC1 [Example 334, (R)-1-(1-{2-[4-(Benzothiazol-2-yloxy)-phenyl]-ethyl}-piperidin-4-yl)-4-hydroxy-pyrrolidin-2-one]	–
436 nM	110 nM	OC1CCN(CCOc2ccc(Oc3nc4ccccc4[nH]3)cc2)CC1 [Example 134, 1-{2-[4-(1H-Benzoimidazol-2-yloxy)-phenoxy]-ethyl}-piperidin-4-ol]	–
81 nM	33 nM	O=C1C[C@@H](O)CN1C1CCN(CCOc2ccc(Oc3nc4ccccc4s3)cc2)CC1 [Example 261, (R) 1-(1-{2-[4-(Benzothiazol-2-yloxy)-phenoxy]-ethyl}-piperidin-4-yl)-4-hydroxy-pyrrolidin-2-one]	–
41 nM	–	OCC1CCN(CCOc2ccc(Oc3nc4ccccc4o3)cc2)CC1 [Example 13, (1-{2-[4-(Benzooxazol-2-yloxy)-phenoxy]ethyl}-piperidin-4-yl)-methanol]	–
–	18 nM	O=C1CCCN1C1CCN(CCOc2ccc(Oc3nc4ccccc4[nH]3)cc2)CC1 [Example 231, 1-(1-{2-[4-(1H-Benzoimidazol-2-yloxy)-phenoxy]-ethyl}-piperidin-4-yl)-pyrrolidin-2-one]	–
–	27 nM	O=S(=O)(c1ccc(Cl)cc1)N(C1CC1)C1CCN(CCOc2ccc(Oc3nc4ccccc4s3)cc2)CC1 [Example 168, N-(1-{2-[4-(Benzothiazol-2-yloxy)-phenoxy]-ethyl}-piperidin-4-yl)-4-chloro-N-cyclopropyl-benzene sulfonamide]	–
–	8 nM	O=C(CN1CCN(CCOc2ccc(Oc3nc4ccccc4s3)cc2)CC1)N1CCCC1 [Example 153, 2-(4-{2-[4-(Benzothiazol-2-yloxy)-phenoxy]-ethyl}-piperazin-1-yl)-1-pyrrolidin-1-yl-ethanone]	–
–	76 nM	NC1CCC1C(=O)NCC1CCN(Cc2ccc(Oc3nc4ccccc4s3)cc2)CC1 (stereo not shown) [Example 285, 2-Amino-cyclobutanecarboxylic acid {1-[4-(benzothiazol-2-yloxy)-benzyl]-piperidin-4-ylmethyl}-amide dihydrochloride]	–
–	14 nM	c1ccc2sc(Oc3ccc(OCCn4cnnn4)cc3)nc2c1 [Example 224, 2-[4-(2-Tetrazol-1-yl-ethoxy)-phenoxy]-benzothiazole]	–
290 nM	111 nM	OCC1CCN(CCOc2ccc(Oc3nc4ccccc4[nH]3)cc2)CC1 [Example 133, (1-{2-[4-(1H-Benzoimidazol-2-yloxy)-phenoxy]-ethyl}-piperidin-4-yl)-methanol]	–

Second part, the compound before the results:

SMILES	IC50 [1]	IC50 [2]	inhibition in vivo at 30 mg/kg [3]
OC1CCN(CCc2ccc(Oc3nc4ccccc4o3)cc2)CC1 [Example 94, 1-{2-[4-(Benzooxazol-2-yloxy)-phenyl]-ethyl}-piperidin-4-ol]	72 nM	1 nM	–
OC1CCN(CCc2ccc(Oc3nc4ccccc4[nH]3)cc2)CC1 [Example 127, 1-{2-[4-(1H-Benzoimidazol-2-yloxy)-phenyl]-ethyl}-piperidin-4-ol]	376 nM	–	–
c1ccc2oc(Oc3ccc(OCCN4CCCCC4)cc3)nc2c1 [Example 11, 2-[4-(2-Piperidin-1-yl-ethoxy)-phenoxy]-benzooxazole]	44 nM	–	95%
OCCN(CCc1ccc(Oc2nc3ccccc3s2)cc1)CC1CC1 [Example 380, 2-({2-[4-(Benzothiazol-2-yloxy)-phenyl]-ethyl}-cyclopropylmethyl-amino)-ethanol]	17 nM	6 nM	–
O=C(O)C1CCCCN1CCc1ccc(Oc2nc3ccccc3s2)cc1 (stereo not shown) [Example 156, 1-{2-[4-(Benzothiazol-2-yloxy)-phenyl]-ethyl}-piperidine-2-carboxylic acid]	2000 nM	7 nM	–
OCC1CCCN(Cc2ccc(Oc3nc4ccccc4s3)cc2)C1 (stereo not shown) [Example 302, {1-[4-(Benzothiazol-2-yloxy)-benzyl]-piperidin-3-yl}-methanol]	212 nM	60 nM	–
OCCC1CCCCN1Cc1ccc(Oc2nc3ccccc3s2)cc1 (stereo not shown) [Example 288, 2-{1-[4-(Benzothiazol-2-yloxy)-benzyl]-piperidin-2-yl}-ethanol]	57 nM	4 nM	–
OCC1CCCCN1Cc1ccc(Oc2nc3ccccc3s2)cc1 (stereo not shown) [Example 298, {1-[4-(Benzothiazol-2-yloxy)-benzyl]-piperidin-2-yl}-methanol]	69 nM	15 nM	–
OCCCN(CCc1ccc(Oc2nc3ccccc3s2)cc1)C1CC1 [Example 198, 3-({2-[4-(Benzothiazol-2-yloxy)-phenyl]-ethyl}-cyclopropyl-amino)-propan-1-ol]	39 nM	–	–
CCN(CCc1ccc(Oc2nc3ccccc3[nH]2)cc1)C1CCCCC1 [Example 123, {2-[4-(1H-Benzoimidazol-2-yloxy)-phenyl]-ethyl}-cyclohexyl-ethyl-amine]	–	4 nM	–
CN(C)CCCOc1ccc(Oc2nc3ccccc3o2)cc1 [Example 45, {3-[4-(Benzooxazol-2-yloxy)-phenoxy]-propyl}-dimethyl-amine]	–	15 nM	–
O=C(O)CCCCCN(CCc1ccc(Oc2nc3ccccc3s2)cc1)C1CC1 [Example 419, 6-({2-[4-(Benzothiazol-2-yloxy)-phenyl]-ethyl}-cyclopropyl-amino)-hexanoic acid]	–	4 nM	–
OCC1CCCN(CCc2ccc(Oc3nc4ccccc4s3)cc2)C1 (stereo not shown) [Example 161, (1-{2-[4-(Benzothiazol-2-yloxy)-phenyl]-ethyl}-piperidin-3-yl)-methanol]	100 nM	1 nM	–
CN(C)CCOc1ccc(Oc2nc3ccccc3o2)cc1 [Example 46, {2-[4-(Benzooxazol-2-yloxy)-phenoxy]-ethyl}-dimethyl-amine]	29 nM	17 nM	–
c1ccc2oc(Oc3ccc(OCCN4CCC4)cc3)nc2c1 [Example 77, 2-[4-(2-Azetidin-1-yl-ethoxy)-phenoxy]-benzooxazole]	–	10 nM	–
c1ccc2sc(Oc3ccc(CCN(CCCc4nn[nH]n4)C4CC4)cc3)nc2c1 [Example 389, {2-[4-(Benzothiazol-2-yloxy)-phenyl]-ethyl}-cyclopropyl-[3-(2H-tetrazol-5-yl)-propyl]-amine]	–	2 nM	–
OC(COc1ccc(Oc2nc3ccccc3o2)cc1)CN1CCCC1 (stereo not shown) [Example 135, 1-[4-(Benzooxazol-2-yloxy)-phenoxy]-3-pyrrolidin-1-yl-propan-2-ol]	–	92 nM	–
O=C(O)C1CC1CN(CCc1ccc(Oc2nc3ccccc3s2)cc1)C1CC1 (stereo not shown) [Example 211, 2-[({2-[4-(Benzothiazol-2-yloxy)-phenyl]-ethyl}-cyclopropyl-amino)-methyl]-cyclopropanecarboxylic acid]	–	9 nM	–
c1ccc2sc(Oc3ccc(CCN4CCN(CCN5CCOCC5)CC4)cc3)nc2c1 [Example 146, 2-(4-{2-[4-(2-Morpholin-4-yl-ethyl)-piperazin-1-yl]-ethyl}-phenoxy)-benzothiazole]	–	43 nM	–
CCN(CC)CCOc1ccc(Oc2nc3ccccc3o2)cc1 [Example 484, {2-[4-(Benzooxazol-2-yloxy)-phenoxy]-ethyl}-diethyl-amine]	11 nM	19 nM	–
c1ccc2[nH]c(Oc3ccc(CCN4CCCCC4)cc3)nc2c1 [Example 230, 2-[4-(2-Piperidin-1-yl-ethyl)-phenoxy]-1H-benzoimidazole]	–	36 nM	–
CCN(CCCN1CCCC1=O)Cc1ccc(Oc2nc3ccccc3s2)cc1 [Example 437, 1-(3-{[4-(Benzothiazol-2-yloxy)-benzyl]-ethyl-amino}-propyl)-pyrrolidin-2-one]	105 nM	21 nM	–
O=C(Cc1ccccc1)NC1CCN(CCc2ccc(Oc3nc4ccccc4s3)cc2)CC1 [Example 110, N-(1-{2-[4-(Benzothiazol-2-yloxy)-phenyl]-ethyl}-piperidin-4-yl)-2-phenyl-acetamide]	–	40 nM	–
OC1(c2ccccc2)CCN(Cc2ccc(Oc3nc4ccccc4s3)cc2)CC1 [Example 358, 1-[4-(Benzothiazol-2-yloxy)-benzyl]-4-phenyl-piperidin-4-ol]	–	11 nM	–
